Assay [1] in a line: Double-blind study: psychophysiological reaction patterns (SMARD-Watch), dynamic cross-correlation analysis. Type of assay: in vivo. The note with it: mean over all 4 Probanden; Oxytocin nasal 4 or 8 I.E.; sex hormone as dermal patch (Estradiol in men, Testosteron in women); low coefficient = balanced sympathetic/parasympathetic regulation. How it is done: (§1) Untersucht wurden 4 Probanden, zwei heterosexuelle Paare mit jeweils mehr als 20jähriger Partnerschaftsdauer. In einer Doppelblindstudie wurden Oxytocin gegen Placebo, die Kombinationen Oxytocin/Estradiol an Männern und Oxytocin/Testosteron an Frauen gegen Placebo und gegen den "Austausch von Intimität" untersucht.
(§2) Den Männern wurde Oxytocin nasal als Spraystoß (1 Spraystoß Syntocinon® = 4 I.E. Oxytocin) und Estradiol dermal als Membranpflaster(2 mg Estradiol mit der Freisetzungsrate von ca. […]; Estraderm TTS® 25) verabreicht.
(§3) Den Frauen wurde Oxytocin nasal als Spraystoß (1 Spraystoß Syntocinon® = 4 I.E. Oxytocin) und Testosteron dermal als Membranpflaster (12,2 mg Testosteron mit einer Freisetzungsrate von ca. 0,1 mg/h; Androderm® 2,5 mg) verabreicht.
(§4) Die Verabreichung von Oxytocin erfolgte nasal und doppelblind (Placebo und Verum) in zwei Dosierungen, 1 Sprühstoß = 4 I.E. Oxytocin und zwei Sprühstöße = 8 I.E. Oxytocin, jeweils fortlaufend im Abstand von einer Stunde. Oxytocin wurde sowohl vor als auch nach der Anlage des Membranpflasters verabreicht. Insgesamt wurden 4 nasale Interventionen vor und nach der zusätzlichen Sexualhormongabe durchgeführt, wobei das Verum 2 mal in unterschiedlichen Dosierungen gegeben wurde. Die ersten nasalen Interventionen erfolgten nach 2 Stunden Wirkzeit der Sexualhormone. […]

Assay [2] is described as follows: Double-blind study: subjective state descriptions by questionnaire. Format: in vivo. The note with it: 4 Probanden. The protocol: as §1, §2, §3, §4

For Oxytocin, the Kreuzkorrelationskoeffizient in assay [1] is recorded as 0,51. For the same substance, in assay [2], the “subjektive Zustandsbeschreibungen (Selbstwahrnehmung)” value is reported as “stärker in Richtung Entspannung tendierte”.
